Active and inactive are the calls of the source.
Key:
Assay type in all cases: functional, organism-based
[1] = test system: Bacillus subtilis; experiment: Antimicrobial activity against Bacillus subtilis
[2] = test system: Staphylococcus aureus; experiment: Antimicrobial activity against Staphylococcus aureus
[3] = test system: Streptococcus mutans; experiment: Antimicrobial activity against Streptococcus mutans
[4] = test system: Cutibacterium acnes; experiment: Antimicrobial activity against Propionibacterium acnes
[5] = test system: Corynebacterium ammoniagenes; experiment: Antimicrobial activity against Brevibacterium ammoniagenes

Measured: Activity

CC(C)=CCC/C(C)=C/[C@@H](O)C/C(C)=C/CC/C(C)=C/CO
active: [1] | [2] | [3] | [4] | [5]

CC(C)=CCC/C(C)=C/[C@H](O)C/C(C)=C/CC/C(C)=C/CO
active: [1] | [2] | [3] | [4] | [5]
